Measured values from paper PMC5458547, “Discovery of first-in-class reversible dual small molecule inhibitors against G9a and DNMTs in hematological malignancies” (Nature Communications, 2017).

What was measured:
CAKI-2 = test: Cell proliferation assay (MTS); assay type: cell-based; conditions: Homo sapiens, Renal
JMJD1A = molecular target: T1, JMJD1A (Homo sapiens, UniProt Q9Y4C1); test: Epigenetics selectivity panel (BPS Bioscience); assay type: biochemical
T1 construct: purchased DiscoverX KINOMEscan (kinases); BPS Bioscience (epigenetic targets)
T1 sequence (Q9Y4C1 whole entry): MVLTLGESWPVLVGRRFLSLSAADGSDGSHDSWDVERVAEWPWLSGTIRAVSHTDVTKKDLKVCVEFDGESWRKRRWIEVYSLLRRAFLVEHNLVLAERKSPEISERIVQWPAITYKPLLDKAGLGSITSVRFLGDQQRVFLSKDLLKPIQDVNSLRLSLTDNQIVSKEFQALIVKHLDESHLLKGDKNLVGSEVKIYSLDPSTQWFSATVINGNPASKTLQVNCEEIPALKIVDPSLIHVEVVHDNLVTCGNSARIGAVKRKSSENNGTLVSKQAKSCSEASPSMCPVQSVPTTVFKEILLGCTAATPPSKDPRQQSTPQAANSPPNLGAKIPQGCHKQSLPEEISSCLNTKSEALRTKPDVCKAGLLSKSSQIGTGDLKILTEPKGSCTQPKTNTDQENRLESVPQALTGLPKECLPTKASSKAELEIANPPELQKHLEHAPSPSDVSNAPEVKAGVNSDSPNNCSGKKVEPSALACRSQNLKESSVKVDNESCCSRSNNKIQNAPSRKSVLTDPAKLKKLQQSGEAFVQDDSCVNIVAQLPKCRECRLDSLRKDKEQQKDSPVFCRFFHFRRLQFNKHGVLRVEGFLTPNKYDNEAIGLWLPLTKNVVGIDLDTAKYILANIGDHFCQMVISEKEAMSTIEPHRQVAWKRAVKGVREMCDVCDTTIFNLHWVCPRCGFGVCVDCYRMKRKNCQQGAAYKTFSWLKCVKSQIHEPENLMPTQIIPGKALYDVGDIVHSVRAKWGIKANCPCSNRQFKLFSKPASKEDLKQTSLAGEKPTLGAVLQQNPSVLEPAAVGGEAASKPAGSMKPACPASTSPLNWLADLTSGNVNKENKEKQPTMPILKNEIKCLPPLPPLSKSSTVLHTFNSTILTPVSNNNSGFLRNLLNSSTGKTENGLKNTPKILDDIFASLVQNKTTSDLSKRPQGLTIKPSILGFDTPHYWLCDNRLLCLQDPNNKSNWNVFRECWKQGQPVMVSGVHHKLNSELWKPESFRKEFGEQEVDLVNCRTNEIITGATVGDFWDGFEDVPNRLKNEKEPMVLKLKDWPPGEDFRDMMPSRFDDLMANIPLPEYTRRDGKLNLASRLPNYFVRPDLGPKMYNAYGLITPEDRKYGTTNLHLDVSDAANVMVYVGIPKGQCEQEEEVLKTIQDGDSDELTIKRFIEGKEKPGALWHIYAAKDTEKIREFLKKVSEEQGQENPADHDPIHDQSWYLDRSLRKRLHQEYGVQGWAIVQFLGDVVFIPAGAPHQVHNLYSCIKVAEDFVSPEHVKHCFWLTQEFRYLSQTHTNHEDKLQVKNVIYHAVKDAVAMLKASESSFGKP

JMJD2B = molecular target: T2, JMJD2B (Homo sapiens, UniProt O94953); test: Epigenetics selectivity panel (BPS Bioscience); assay type: biochemical
T2 construct: purchased DiscoverX KINOMEscan (kinases); BPS Bioscience (epigenetic targets)
T2 sequence (O94953 whole entry): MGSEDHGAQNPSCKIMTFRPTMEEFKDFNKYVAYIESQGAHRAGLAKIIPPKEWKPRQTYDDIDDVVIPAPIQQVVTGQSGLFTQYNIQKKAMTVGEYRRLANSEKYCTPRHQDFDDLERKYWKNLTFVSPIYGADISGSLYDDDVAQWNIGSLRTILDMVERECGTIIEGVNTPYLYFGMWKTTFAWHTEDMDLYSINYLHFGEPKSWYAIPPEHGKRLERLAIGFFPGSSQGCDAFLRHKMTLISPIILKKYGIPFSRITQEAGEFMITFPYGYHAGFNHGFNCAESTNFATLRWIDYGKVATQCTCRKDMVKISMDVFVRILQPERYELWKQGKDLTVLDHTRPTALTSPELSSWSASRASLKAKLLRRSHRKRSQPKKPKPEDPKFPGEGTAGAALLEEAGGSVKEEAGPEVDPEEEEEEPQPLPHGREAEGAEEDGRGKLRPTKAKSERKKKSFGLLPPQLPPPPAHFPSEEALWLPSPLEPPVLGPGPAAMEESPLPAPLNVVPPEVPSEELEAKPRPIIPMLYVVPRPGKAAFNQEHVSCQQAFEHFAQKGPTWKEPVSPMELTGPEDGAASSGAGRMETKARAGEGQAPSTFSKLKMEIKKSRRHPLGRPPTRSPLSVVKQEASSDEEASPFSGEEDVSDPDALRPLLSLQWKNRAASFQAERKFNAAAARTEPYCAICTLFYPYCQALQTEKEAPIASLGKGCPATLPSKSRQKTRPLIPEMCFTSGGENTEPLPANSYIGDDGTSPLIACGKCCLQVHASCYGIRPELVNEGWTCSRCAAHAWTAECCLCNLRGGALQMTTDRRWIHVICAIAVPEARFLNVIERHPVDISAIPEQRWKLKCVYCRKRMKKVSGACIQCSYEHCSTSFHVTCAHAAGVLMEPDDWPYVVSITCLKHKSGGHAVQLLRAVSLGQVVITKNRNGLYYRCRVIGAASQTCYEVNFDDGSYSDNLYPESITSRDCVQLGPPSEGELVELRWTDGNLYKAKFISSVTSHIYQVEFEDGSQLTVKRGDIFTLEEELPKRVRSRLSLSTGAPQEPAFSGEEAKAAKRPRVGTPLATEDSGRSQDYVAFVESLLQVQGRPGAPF

DNMT3A = molecular target: T3, DNMT3A (Homo sapiens, UniProt Q9Y6K1); test: Epigenetics selectivity panel (BPS Bioscience); assay type: biochemical
T3 construct: purchased BPS Bioscience (contract panel)

HEL = test: Cell proliferation assay (MTS); assay type: cell-based; conditions: Homo sapiens, AML, 48 h
[1] = Plasma protein binding (equilibrium dialysis); assay type: in vitro ADME; conditions: pH 7.4
Protocol: This study was conducted by Equilibrium Dialysis at Wuxi (http://www.wuxi.com/). HT-Dialysis plate (Model HTD 96 b, Cat# 1006) and the dialysis membrane (molecular weight cut off 12-14 kDa, Cat# 1101) were purchased from HT Dialysis LLC (Gales Ferry, CT). Human plasma and CD-1 mouse plasma from Bioreclamation were thawed prior to experiment and the pH was adjusted at 7.4. Concentrations of test compounds in starting solution (before dialysis), plasma side of the membrane and buffer side of the membrane were quantified by LC-MS/MS (Shimadzu LC 20-AD - API 4000) methodologies, using peak area ratio of analyte/internal standard. The fraction of unbound, bound and recovery were calculated.
Results are the average of three replicates. […]
The pH was adjusted to 7.40±0.05 using either 1 M sodium hydroxide or 1 M hydrochloric acid. Test compounds were diluted to 0.2 mM in DMSO and further diluted prior to testing to 10 µM in PBS, pH 7.4 (final 5% DMSO). The assay was performed using a 96-well multiscreen-IP PAMPA plate (Millipore, Cat. # MAIPN4510), whose PVDF membrane was pre-coated with 5 µL of 1% lecithin/dodecane mixture. 150 µL of PBS solution containing the test compounds were added to the donor chamber. Blank PBS (300 µL) was also added to the PTFE acceptor plate, and the donor and acceptor plates were assembled and incubated for 4 h at room temperature with shaking at 150 rpm. […]

Jarid1A = molecular target: T4, Jarid1A (Homo sapiens, UniProt P29375); test: Epigenetics selectivity panel (BPS Bioscience); assay type: biochemical
T4 construct: purchased DiscoverX KINOMEscan (kinases); BPS Bioscience (epigenetic targets)
T4 sequence (P29375 whole entry): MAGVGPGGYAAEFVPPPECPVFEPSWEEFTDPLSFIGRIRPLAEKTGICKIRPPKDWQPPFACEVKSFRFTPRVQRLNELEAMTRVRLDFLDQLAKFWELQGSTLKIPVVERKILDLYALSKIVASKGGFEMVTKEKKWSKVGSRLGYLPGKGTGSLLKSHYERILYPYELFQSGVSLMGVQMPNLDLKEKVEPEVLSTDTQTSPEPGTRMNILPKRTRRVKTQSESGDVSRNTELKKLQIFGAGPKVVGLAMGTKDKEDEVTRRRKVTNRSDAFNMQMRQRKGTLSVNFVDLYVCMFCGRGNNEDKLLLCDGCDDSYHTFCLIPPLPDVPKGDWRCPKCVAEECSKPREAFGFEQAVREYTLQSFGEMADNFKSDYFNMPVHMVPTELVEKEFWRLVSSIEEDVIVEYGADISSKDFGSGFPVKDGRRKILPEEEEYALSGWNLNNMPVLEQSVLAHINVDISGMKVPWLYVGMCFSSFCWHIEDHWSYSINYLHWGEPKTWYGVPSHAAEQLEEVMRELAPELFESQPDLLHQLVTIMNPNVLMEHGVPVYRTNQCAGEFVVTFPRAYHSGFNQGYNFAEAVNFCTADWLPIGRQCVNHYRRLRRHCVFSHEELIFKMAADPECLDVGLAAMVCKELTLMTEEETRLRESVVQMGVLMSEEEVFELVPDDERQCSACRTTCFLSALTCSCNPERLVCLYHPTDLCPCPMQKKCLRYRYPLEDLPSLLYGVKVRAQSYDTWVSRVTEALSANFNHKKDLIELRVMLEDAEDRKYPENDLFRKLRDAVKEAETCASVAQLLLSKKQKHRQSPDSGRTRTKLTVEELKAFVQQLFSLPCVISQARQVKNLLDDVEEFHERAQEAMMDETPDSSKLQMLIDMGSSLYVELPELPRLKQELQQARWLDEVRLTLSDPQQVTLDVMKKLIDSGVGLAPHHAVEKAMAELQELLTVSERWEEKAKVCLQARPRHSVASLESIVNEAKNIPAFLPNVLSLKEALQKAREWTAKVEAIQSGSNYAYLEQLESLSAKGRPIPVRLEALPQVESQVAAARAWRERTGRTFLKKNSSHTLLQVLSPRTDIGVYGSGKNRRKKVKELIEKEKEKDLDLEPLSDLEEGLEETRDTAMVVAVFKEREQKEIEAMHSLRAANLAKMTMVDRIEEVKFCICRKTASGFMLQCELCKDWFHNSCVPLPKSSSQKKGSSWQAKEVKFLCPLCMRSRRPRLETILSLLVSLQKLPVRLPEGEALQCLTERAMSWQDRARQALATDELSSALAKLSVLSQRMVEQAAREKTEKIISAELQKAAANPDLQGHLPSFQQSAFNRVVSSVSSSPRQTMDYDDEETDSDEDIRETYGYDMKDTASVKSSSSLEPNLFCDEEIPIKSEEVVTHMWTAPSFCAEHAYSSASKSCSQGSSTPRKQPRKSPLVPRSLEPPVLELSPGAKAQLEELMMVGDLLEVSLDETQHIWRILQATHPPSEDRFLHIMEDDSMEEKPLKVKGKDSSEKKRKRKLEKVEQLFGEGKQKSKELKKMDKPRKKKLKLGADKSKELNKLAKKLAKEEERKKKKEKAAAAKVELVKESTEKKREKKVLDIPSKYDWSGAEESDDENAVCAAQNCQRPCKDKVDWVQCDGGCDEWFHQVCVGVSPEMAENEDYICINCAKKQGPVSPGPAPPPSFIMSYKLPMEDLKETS

KG-1 = test: Cell proliferation assay (MTS); assay type: cell-based; conditions: Homo sapiens, AML, 48 h
RT112 = test: Cell proliferation assay (MTS); assay type: cell-based; conditions: Homo sapiens, RT-112; Bladder
BRD2(BD1+BD2) = molecular target: T5, BRD2(BD1+BD2) (Homo sapiens, UniProt P25440); test: Epigenetics selectivity panel (BPS Bioscience); assay type: binding
T5 construct: purchased DiscoverX KINOMEscan (kinases); BPS Bioscience (epigenetic targets)

SET7-9 = molecular target: T6, SET7-9 (Homo sapiens, UniProt Q8WTS6); test: Epigenetics selectivity panel (BPS Bioscience); assay type: biochemical
T6 construct: purchased DiscoverX KINOMEscan (kinases); BPS Bioscience (epigenetic targets)

N417 = test: Cell proliferation assay (MTS); assay type: cell-based; conditions: Homo sapiens, SCLC
PRMT6 = molecular target: T7, PRMT6 (Homo sapiens, UniProt Q96LA8); test: Epigenetics selectivity panel (BPS Bioscience); assay type: biochemical
T7 construct: purchased BPS Bioscience (contract panel)
T7 sequence (Q96LA8 whole entry): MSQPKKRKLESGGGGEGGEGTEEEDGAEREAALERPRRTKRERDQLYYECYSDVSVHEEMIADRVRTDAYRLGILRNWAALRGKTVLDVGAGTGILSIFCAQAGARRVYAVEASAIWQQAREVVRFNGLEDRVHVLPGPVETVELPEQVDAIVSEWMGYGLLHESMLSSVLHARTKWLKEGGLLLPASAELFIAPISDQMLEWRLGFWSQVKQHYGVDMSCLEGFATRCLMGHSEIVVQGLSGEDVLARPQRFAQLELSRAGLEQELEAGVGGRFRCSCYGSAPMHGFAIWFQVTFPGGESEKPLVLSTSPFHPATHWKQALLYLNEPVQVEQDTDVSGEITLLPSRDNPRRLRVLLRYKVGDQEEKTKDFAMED

H1299 = test: Cell proliferation assay (MTS); assay type: cell-based; conditions: Homo sapiens, NCI-H1299; NSCLC
MY = test: Cell proliferation assay (MTS); assay type: cell-based; conditions: Homo sapiens; ALL, 48 h
ATAD2B = molecular target: T8, ATAD2B (Homo sapiens, UniProt Q9ULI0); test: Epigenetics selectivity panel (BPS Bioscience); assay type: binding
T8 construct: purchased DiscoverX KINOMEscan (kinases); BPS Bioscience (epigenetic targets)

H358 = test: Cell proliferation assay (MTS); assay type: cell-based; conditions: Homo sapiens, NCI-H358; NSCLC
LOVO = test: Cell proliferation assay (MTS); assay type: cell-based; conditions: Homo sapiens, Colorectal
cytochrome P450 2D6 = molecular target: T9, cytochrome P450 2D6 (Homo sapiens, UniProt P10635); assay type: in vitro ADME; conditions: microsomes, 10 min, 10 µM
T9 construct: tissue BD Gentest; host or cells: human liver microsomes
T9 sequence (P10635 whole entry): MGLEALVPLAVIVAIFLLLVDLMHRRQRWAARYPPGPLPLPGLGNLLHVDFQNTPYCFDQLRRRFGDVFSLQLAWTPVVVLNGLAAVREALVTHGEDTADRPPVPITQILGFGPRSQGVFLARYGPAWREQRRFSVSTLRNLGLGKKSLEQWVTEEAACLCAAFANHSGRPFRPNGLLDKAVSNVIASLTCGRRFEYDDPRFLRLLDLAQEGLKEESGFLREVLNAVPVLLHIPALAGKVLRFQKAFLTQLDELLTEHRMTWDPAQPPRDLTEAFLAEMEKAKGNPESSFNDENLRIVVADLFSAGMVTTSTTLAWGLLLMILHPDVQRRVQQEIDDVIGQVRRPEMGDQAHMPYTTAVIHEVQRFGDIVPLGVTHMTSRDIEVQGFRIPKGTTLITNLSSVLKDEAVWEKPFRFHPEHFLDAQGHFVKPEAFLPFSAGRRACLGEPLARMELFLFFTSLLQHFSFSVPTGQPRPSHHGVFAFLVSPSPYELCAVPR
Protocol: (§1) Details are provided in Supplementary Information. […]
(§2) 3A4) was evaluated in human liver microsomes at Wuxi (http://www.wuxi.com/). Test compounds (10 µM) and the corresponding substrates for each P450 isoform (20 µL) were incubated with 140 µL liver […]
(§3) reaction was terminated by adding 400 µL cold stop solution (200 ng/mL tolbutamide in ACN) and samples were centrifuged at 4000 rpm for 20 minutes. Supernatants were analyzed by LC-MS/MS (Shimadzu LC 20-AD - API 4000), using peak area ratio of analyte/internal standard. Test compounds and positive controls were tested in duplicates. The percentage of inhibition was calculated as the ratio of substrate metabolite detected in treated and non-treated wells. […]

cytochrome P450 2C9 = molecular target: T10, cytochrome P450 2C9 (Homo sapiens, UniProt P11712); assay type: in vitro ADME; conditions: microsomes, 10 min, 10 µM
T10 construct: tissue BD Gentest; host or cells: human liver microsomes
Protocol: as §1, §2, §3

cytochrome P450 2C19 = molecular target: T11, cytochrome P450 2C19 (Homo sapiens, UniProt P33261); assay type: in vitro ADME; conditions: microsomes, 10 min, 10 µM
T11 construct: tissue BD Gentest; host or cells: human liver microsomes
Protocol: as §1, §2, §3

cytochrome P450 3A4 = molecular target: T12, cytochrome P450 3A4 (Homo sapiens, UniProt P08684); assay type: in vitro ADME; conditions: microsomes, 10 min, 10 µM
T12 construct: tissue BD Gentest; host or cells: human liver microsomes
Protocol: as §1, §2, §3

451-LU = test: Cell proliferation assay (MTS); assay type: cell-based; conditions: Homo sapiens, Melanoma
RPMI 8226 = test: Cell proliferation assay (MTS); assay type: cell-based; conditions: Homo sapiens, MM
CREBBP = molecular target: T13, CREBBP (Homo sapiens, UniProt Q92793); test: Epigenetics selectivity panel (BPS Bioscience); assay type: binding
T13 construct: purchased DiscoverX KINOMEscan (kinases); BPS Bioscience (epigenetic targets)

MLL-WARD = molecular target: T14, MLL-WARD (Homo sapiens, UniProt Q03164); test: Epigenetics selectivity panel (BPS Bioscience); assay type: biochemical
T14 construct: purchased DiscoverX KINOMEscan (kinases); BPS Bioscience (epigenetic targets)

in vivo = test: in vivo; set-up: species or system mice; conditions: mouse, iv
EZH1 = molecular target: T15, EZH1 (Homo sapiens, UniProt Q92800); test: Epigenetics selectivity panel (BPS Bioscience); assay type: biochemical
T15 construct: purchased DiscoverX KINOMEscan (kinases); BPS Bioscience (epigenetic targets)

PEER = test: Cell proliferation assay (MTS); assay type: cell-based; conditions: Homo sapiens; ALL, 48 h
Maximum tolerated dose = conditions: mouse, in vivo, iv
MOLM-13 = test: Cell proliferation assay (MTS); assay type: cell-based; conditions: Homo sapiens, AML, 48 h
SK-MEL-103 = test: Cell proliferation assay (MTS); assay type: cell-based; conditions: Homo sapiens, Melanoma

| Structure (SMILES) | GI50 (CAKI-2) | inhibition at 10 µM (JMJD1A) | inhibition at 10 µM (JMJD2B) | IC50 (DNMT3A) | GI50 (HEL) | fraction unbound ([1]; CD-1, mouse) | fraction unbound ([1]; human) | inhibition at 10 µM (Jarid1A) | GI50 (KG-1) | GI50 (RT112) | inhibition at 10 µM (BRD2(BD1+BD2)) | inhibition at 10 µM (SET7-9) | GI50 (N417) | inhibition at 10 µM (PRMT6) | GI50 (H1299) | GI50 (MY) | inhibition at 10 µM (ATAD2B) | GI50 (H358) | GI50 (LOVO) | P450s Inhibition: 2D6 (cytochrome P450 2D6) | also measured |
| --- | --- | --- | --- | --- | --- | --- | --- | --- | --- | --- | --- | --- | --- | --- | --- | --- | --- | --- | --- | --- | --- |
| COc1cc2c(NC3CCN(C)CC3)cc(-c3ccc(C)o3)nc2cc1OCCCN1CCCC1 [CM-272, 6-methoxy-2-(5-methyl-2-furyl)-N-(1-methyl-4-piperidyl)-7-(3-pyrrolidin-1-ylpropoxy)quinolin-4-amine] | 2920 nM | 8% | 2% | 85 nM | > 10000 nM | 0.25 | 0.244 | 2% | 3540 nM | 899 nM | 0% | 3% | 1320 nM | 82% | 1060 nM | 816 nM | 0% | 644 nM | 1220 nM | < 10% | IC50 (PRMT6; BPS): 3000 nM; P450s Inhibition: 2C9 (cytochrome P450 2C9): < 10%; P450s Inhibition: 2C19 (cytochrome P450 2C19): < 10%; P450s Inhibition: 3A4 (cytochrome P450 3A4): < 10%; GI50 (451-LU): 378 nM; GI50 (RPMI 8226): 2000 nM; inhibition at 10 µM (CREBBP): 5%; inhibition at 10 µM (MLL-WARD): 4%; clearance (in vivo; […]): 15.2 mL/min/kg; half-life (in vivo; […]): 24.2 h; inhibition at 10 µM (EZH1): 6%; GI50 (PEER): 930 nM; MTD (Maximum tolerated dose): 2.5 mg/kg; GI50 (MOLM-13): 604 nM; GI50 (SK-MEL-103): 281 nM |
| COc1cc2c(NCC3CCN(C)CC3)cc(-c3ccc(C)o3)nc2cc1OCCCN1CCCC1 [CM-579, 6-methoxy-2-(5-methyl-2-furyl)-N-[(1-methyl-4-piperidyl)methyl]-7-(3-pyrrolidin-1-ylpropoxy)quinolin-4-amine] | 304 nM | 6% | 40% | 92 nM | > 10000 nM | 0.046 | 0.147 | 27% | > 10000 nM | 319 nM | 0% | 0% | 409 nM | 40% | 547 nM | 3950 nM | 0% | 197 nM | 297 nM | < 10% | P450s Inhibition: 2C9 (cytochrome P450 2C9): < 10%; P450s Inhibition: 2C19 (cytochrome P450 2C19): < 10%; P450s Inhibition: 3A4 (cytochrome P450 3A4): < 10%; GI50 (451-LU): 69 nM; GI50 (RPMI 8226): 5420 nM; inhibition at 10 µM (CREBBP): 0%; inhibition at 10 µM (MLL-WARD): 2%; AUC(0-t) (in vivo; 1 mg/kg): 0.268 µM·h; Cmax (in vivo; 1 mg/kg): 191 nM; clearance (in vivo; 1 mg/kg): 95 mL/min/kg; half-life (in vivo; 1 mg/kg): 6.26 h; inhibition at 10 µM (EZH1): 17%; GI50 (PEER): > 10000 nM; MTD (Maximum tolerated dose): ≤ 1 mg/kg; GI50 (MOLM-13): 1020 nM; GI50 (SK-MEL-103): 29 nM |
